Assay results taken from ChEMBL document CHEMBL1136933 (J Med Chem, 2009).

Key:
Type in all cases: functional, cell-based
[1] = biological target: T1, Muscarinic acetylcholine receptor M1 (Rattus norvegicus, UniProt P08482); assay: Activation of rat muscarinic M1 receptor expressed in CHO cells co-expressing Gq protein assessed as potentiation of acetylcholine-induced intracellular Ca2+ mobilization
T1 sequence (P08482 whole entry): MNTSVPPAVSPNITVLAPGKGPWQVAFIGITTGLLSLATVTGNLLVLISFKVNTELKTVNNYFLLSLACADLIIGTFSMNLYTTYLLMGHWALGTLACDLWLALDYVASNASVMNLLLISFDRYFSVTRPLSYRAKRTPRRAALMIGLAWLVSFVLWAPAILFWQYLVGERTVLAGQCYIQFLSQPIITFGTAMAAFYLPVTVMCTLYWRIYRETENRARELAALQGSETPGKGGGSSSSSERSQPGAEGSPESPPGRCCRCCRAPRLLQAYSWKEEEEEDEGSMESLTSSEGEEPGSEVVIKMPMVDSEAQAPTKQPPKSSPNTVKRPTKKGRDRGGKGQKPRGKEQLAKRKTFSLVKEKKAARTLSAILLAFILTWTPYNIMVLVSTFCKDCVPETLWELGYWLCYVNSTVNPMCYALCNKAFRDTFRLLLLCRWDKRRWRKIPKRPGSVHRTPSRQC

[2] = biological target: T2, Muscarinic acetylcholine receptor M1 (Rattus norvegicus) (UniProt P08482); assay: Activation of rat muscarinic M1 receptor expressed in CHO cells co-expressing Gq protein assessed as potentiation of acetylcholine-induced intracellular Ca2+ mobilization at 30 uM relative to acetylcholine
T2 sequence (whole entry): T1 sequence (P08482 whole entry)

[3] = biological target: T3, Muscarinic acetylcholine receptor M5 (Homo sapiens, UniProt P08912); assay: Activation of human muscarinic M5 receptor expressed in CHO cells coexpressing Gq protein assessed as potentiation of acetylcholine-induced intracellular Ca2+ mobilization
T3 sequence (P08912 whole entry): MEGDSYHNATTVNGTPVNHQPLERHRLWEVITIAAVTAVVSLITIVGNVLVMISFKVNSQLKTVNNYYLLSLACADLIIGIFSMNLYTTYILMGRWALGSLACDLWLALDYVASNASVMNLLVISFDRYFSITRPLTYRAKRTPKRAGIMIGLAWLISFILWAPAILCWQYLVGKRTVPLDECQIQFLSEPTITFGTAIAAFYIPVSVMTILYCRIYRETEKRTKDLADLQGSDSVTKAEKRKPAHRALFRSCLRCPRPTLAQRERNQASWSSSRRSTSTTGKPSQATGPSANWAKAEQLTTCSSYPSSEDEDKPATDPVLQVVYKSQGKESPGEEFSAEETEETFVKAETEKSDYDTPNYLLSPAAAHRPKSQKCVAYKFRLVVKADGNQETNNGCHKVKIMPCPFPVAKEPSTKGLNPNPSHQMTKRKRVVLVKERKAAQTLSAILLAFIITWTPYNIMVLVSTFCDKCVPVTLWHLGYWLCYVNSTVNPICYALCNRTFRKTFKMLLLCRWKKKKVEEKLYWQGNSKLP

[4] = biological target: T4, Muscarinic acetylcholine receptor M5 (Homo sapiens) (UniProt P08912); assay: Activation of human muscarinic M5 receptor expressed in CHO cells coexpressing Gq protein assessed as potentiation of acetylcholine-induced intracellular Ca2+ mobilization at 30 uM relative to acetylcholine
T4 sequence (whole entry): T3 sequence (P08912 whole entry)

EC50 [1] [µM]	%max [2] [%]	EC50 [3] [µM]	%max [4] [%]	SMILES
–	37.7	–	40.8	Cc1ccccc1CN1C(=O)C(=O)c2cc(F)ccc21
–	49.2	–	48.5	O=C1C(=O)N(Cc2ccc(Br)cc2F)c2ccccc21
–	40.1	–	46.2	O=C1C(=O)N(Cc2ccccc2F)c2ccc(F)cc21
–	32.8	–	32.6	Cc1ccccc1CN1C(=O)C(=O)c2cccc(Cl)c21
–	13.1	–	18.9	O=C1C(=O)N(Cc2ccccc2Cl)c2c(Cl)ccc(Cl)c21
–	43.6	–	72.3	O=C1C(=O)N(Cc2ccc(OC(F)(F)F)cc2)c2c(Cl)cccc21
–	31.1	–	14	O=C1C(=O)N(Cc2ccccc2C(F)(F)F)c2c(Cl)cccc21
–	51.1	–	52	COc1cccc(CN2C(=O)C(=O)c3cccc(F)c32)c1
–	27.6	–	47.3	Cc1ccccc1CN1C(=O)C(=O)c2cc(Cl)ccc21
–	18.6	–	11.7	COc1ccc(CN2C(=O)C(=O)c3c(Cl)ccc(Cl)c32)cc1
–	29.9	–	30.4	O=C1C(=O)N(Cc2ccc(Br)cc2F)c2ccc(Cl)cc21
–	19.4	–	28	COc1cccc(CN2C(=O)C(=O)c3ccccc32)c1
–	19	–	24.1	Cc1ccc2c(c1)C(=O)C(=O)N2Cc1ccc(Br)cc1
–	22.3	–	27.8	Cc1ccc2c(c1)C(=O)C(=O)N2Cc1ccc(Br)cc1F
–	11.3	–	51.8	O=C1C(=O)N(Cc2ccccc2F)c2ccc(OC(F)(F)F)cc21
–	38.9	–	24.5	O=C1C(=O)N(Cc2ccccc2F)c2ccccc21
–	16.9	–	27.9	COc1cccc(CN2C(=O)C(=O)c3cc(Cl)ccc32)c1
–	43.4	–	42	O=C1C(=O)N(Cc2ccccc2Cl)c2ccccc21
–	17.8	–	30.6	Cc1ccc2c(c1)C(=O)C(=O)N2Cc1ccccc1C(F)(F)F
–	26.1	–	32	O=C1C(=O)N(Cc2ccc(Br)cc2)c2ccc(Cl)cc21
–	18.5	–	20.3	O=C1C(=O)N(Cc2ccccc2Cl)c2c(F)cccc21
–	13.7	–	16.4	Cc1ccccc1CN1C(=O)C(=O)c2c(Cl)ccc(Cl)c21
–	16	–	23.2	O=C1C(=O)N(Cc2ccc(OC(F)(F)F)cc2)c2c(Cl)ccc(Cl)c21
–	21.1	–	16	O=C1C(=O)N(Cc2ccccc2C(F)(F)F)c2c(Cl)ccc(Cl)c21
–	22.6	–	56.5	O=C1C(=O)N(Cc2ccccc2C(F)(F)F)c2ccc(OC(F)(F)F)cc21
–	33.1	–	25.1	O=C1C(=O)N(Cc2c(F)cccc2F)c2c(F)cccc21
–	46.9	–	38.7	COc1cccc(CN2C(=O)C(=O)c3cccc(Cl)c32)c1
–	54.6	–	44.4	COc1ccc(CN2C(=O)C(=O)c3cccc(F)c32)cc1
–	13.6	–	29.8	O=C1C(=O)N(Cc2c(F)cccc2F)c2ccc(OC(F)(F)F)cc21

Further lines, the compound ahead of its results:

SMILES	EC50 [1] [µM]	%max [2] [%]	EC50 [3] [µM]	%max [4] [%]
COc1ccc(CN2C(=O)C(=O)c3ccccc32)cc1	> 10	43.6	> 30	29.2
O=C1C(=O)N(Cc2ccccc2C(F)(F)F)c2ccc(Cl)cc21	–	29.6	–	48.4
O=C1C(=O)N(Cc2ccc(OC(F)(F)F)cc2)c2ccccc21	–	54.7	–	60.5
O=C1C(=O)N(Cc2ccc(C(F)(F)F)cc2)c2ccc(Cl)cc21	–	44.1	–	67.4
O=C1C(=O)N(Cc2c(F)cccc2F)c2c(Cl)cccc21	–	38.8	–	23.6
O=C1C(=O)N(Cc2ccccc2C(F)(F)F)c2ccccc21	–	37.9	–	40.2
O=C1C(=O)N(Cc2c(F)cccc2F)c2ccc(Cl)cc21	–	27.3	–	31.8
O=C1C(=O)N(Cc2ccc(Br)cc2)c2c(Cl)cccc21	–	29.9	–	44.3
O=C1C(=O)N(Cc2ccc(F)cc2F)c2ccccc21	–	44.8	–	40.4
COc1ccc(CN2C(=O)C(=O)c3cc(C)ccc32)cc1	–	14.1	–	21.2
O=C1C(=O)N(Cc2ccc(F)cc2F)c2c(Cl)ccc(Cl)c21	–	17.2	–	19.1
O=C1C(=O)N(Cc2ccccc2Cl)c2ccc(F)cc21	–	41.4	–	39.9
O=C1C(=O)N(Cc2ccc(Br)cc2)c2ccc(OC(F)(F)F)cc21	–	13.2	–	47.6
Cc1ccccc1CN1C(=O)C(=O)c2cccc(F)c21	–	30.2	–	27.5
O=C1C(=O)N(Cc2ccccc2F)c2ccc(Cl)cc21	–	23	–	36.3
O=C1C(=O)N(Cc2ccc(OC(F)(F)F)cc2)c2ccc(Cl)cc21	–	31.3	–	47.1
O=C1C(=O)N(Cc2ccc(Br)cc2F)c2c(F)cccc21	–	39.2	–	46.3
COc1cccc(CN2C(=O)C(=O)c3cc(F)ccc32)c1	–	32.3	–	41.6
O=C1C(=O)N(Cc2ccc(F)cc2F)c2ccc(Cl)cc21	–	32.4	–	44.9
O=C1C(=O)N(Cc2ccc(Br)cc2)c2c(Cl)ccc(Cl)c21	–	12.1	–	20.7
COc1ccc(CN2C(=O)C(=O)c3cc(Cl)ccc32)cc1	–	20.3	–	32.6
Cc1cccc2c1N(Cc1ccc(F)cc1F)C(=O)C2=O	–	32.6	–	33.8
O=C1C(=O)N(Cc2ccc(C(F)(F)F)cc2)c2ccccc21	–	–	3.19	–
O=C1C(=O)N(Cc2ccc(Br)cc2F)c2ccc(F)cc21	–	70.5	–	64

SMILES	EC50 [1] [µM]	%max [2] [%]	EC50 [3] [µM]	%max [4] [%]
O=C1C(=O)N(Cc2ccc(OC(F)(F)F)cc2)c2c(F)cccc21	–	51.8	–	57.7
COc1ccc(CN2C(=O)C(=O)c3cc(F)ccc32)cc1	–	41.1	–	38.3
O=C1C(=O)N(Cc2c(F)cccc2F)c2ccccc21	–	36.6	–	17.4
O=C1C(=O)N(Cc2ccc(Br)cc2F)c2c(Cl)cccc21	–	–	4.66	–
Cc1ccc2c(c1)C(=O)C(=O)N2Cc1ccc(OC(F)(F)F)cc1	–	13.8	–	18.9
Cc1ccc2c(c1)C(=O)C(=O)N2Cc1ccc(C(F)(F)F)cc1	–	22.9	–	35.5
O=C1C(=O)N(Cc2ccccc2Cl)c2ccc(Cl)cc21	–	21.3	–	44.4
Cc1ccc2c(c1)C(=O)C(=O)N2Cc1ccccc1C	–	20.2	–	29.9
COc1cccc(CN2C(=O)C(=O)c3cc(C)ccc32)c1	–	14.5	–	29.6
O=C1C(=O)N(Cc2ccccc2F)c2c(Cl)cccc21	–	50.4	–	49.5
O=C1C(=O)N(Cc2ccc(F)cc2F)c2c(Cl)cccc21	–	64.6	–	61.6
O=C1C(=O)N(Cc2c(F)cccc2F)c2c(Cl)ccc(Cl)c21	–	16.4	–	12.2
Cc1cccc2c1N(Cc1ccccc1F)C(=O)C2=O	–	24.9	–	24.6
Cc1cccc2c1N(Cc1c(F)cccc1F)C(=O)C2=O	–	17.3	–	14.4
O=C1C(=O)N(Cc2c(F)cccc2F)c2ccc(F)cc21	–	27.6	–	31.1
O=C1C(=O)N(Cc2ccc(OC(F)(F)F)cc2)c2ccc(F)cc21	–	59.8	–	58.4
O=C1C(=O)N(Cc2ccc(Br)cc2F)c2c(Cl)ccc(Cl)c21	–	9.93	–	12.4
O=C1C(=O)N(Cc2ccccc2F)c2c(Cl)ccc(Cl)c21	–	12.4	–	14.7
O=C1C(=O)N(Cc2ccc(F)cc2F)c2ccc(OC(F)(F)F)cc21	–	25.9	–	61.9
O=C1C(=O)N(Cc2ccc(F)cc2F)c2ccc(F)cc21	–	47.3	–	60.3
Cc1ccc2c(c1)C(=O)C(=O)N2Cc1ccccc1Cl	–	16.8	–	24.3
O=C1C(=O)N(Cc2ccc(F)cc2F)c2c(F)cccc21	–	64.4	–	68.9
Cc1ccccc1CN1C(=O)C(=O)c2ccccc21	–	43.2	–	36.3
O=C1C(=O)N(Cc2ccccc2F)c2c(F)cccc21	–	42.7	–	42.4
